# Measurements reported in ChEMBL document CHEMBL1151289, “Biosynthesis of ganefromycin: results from blocked mutants and bioconversion experiments” (1998).
# System: Priestia megaterium
# Assay: Antimicrobial activity against Bacillus megaterium
# Assay type: functional
row,Compound,MIC [µg/mL]
1,C/C=C\C=C\[C@@H]1O[C@](O)([C@@H](C)C(=O)NC/C=C/C=C(\C)C(O)C(C)C2CC(O)C(/C=C/C=C/C=C/C(=O)O)O2)C[C@H](O)C1(C)C (stereo not given in full),> 100
2,C/C=C\C=C\[C@@H]1O[C@](O)([C@H](CO)C(=O)NC/C=C/C=C(\C)C(OC)C(C)C2CC(O)C(/C=C/C=C/C=C/C(=O)O)O2)[C@H](O)[C@H](O)C1(C)C (stereo not given in full),50
3,C/C=C\C=C\[C@@H]1O[C@](O)([C@H](C)C(=O)NC/C=C/C=C(\C)C(O)C(C)C2CC(O)C(/C=C/C=C/C=C/C(=O)O)O2)C[C@H](O)C1(C)C (stereo not given in full),> 100
4,C/C=C\C=C\[C@@H]1O[C@](O)([C@H](CO[C@H]2C[C@H](O)[C@H](O)[C@H](C)O2)C(=O)NC/C=C/C=C(\C)C(OC)C(C)C2CC(O)C(/C=C/C=C/C=C/C(=O)O)O2)[C@H](O)[C@H](OC(=O)Cc2ccccc2)C1(C)C (stereo not given in full),50
5,C/C=C\C=C\[C@@H]1O[C@](O)([C@H](CO[C@H]2C[C@H](OC)[C@H](O[C@@H]3C[C@@H](OC)[C@@H](O[C@H]4C[C@H](OC)[C@H](O)[C@H](C)O4)[C@H](C)O3)[C@H](C)O2)C(=O)NC/C=C/C=C(\C)C(OC)C(C)C(=O)CC(O)C/C=C/C=C/C=C/C(=O)O)C[C@H](O)C1(C)C (stereo not given in full),3.1
6,C/C=C\C=C\[C@@H]1O[C@](O)([C@H](CO[C@H]2C[C@H](O)[C@H](O)[C@H](C)O2)C(=O)NC/C=C/C=C(\C)C(OC)C(C)C2CC(O)C(/C=C/C=C/C=C/C(=O)O)O2)[C@H](OC(=O)Cc2ccccc2)[C@H](O)C1(C)C (stereo not given in full),12.5
7,C/C=C\C=C\[C@@H]1O[C@](O)([C@H](CO[C@@H]2O[C@@H](C)[C@@H](C)[C@@H](O[C@@H]3C[C@@H](OC)[C@@H](O)[C@H](C)O3)[C@H]2OC)C(=O)NC/C=C/C=C(\C)C(OC)C(C)C2CC(O)C(/C=C/C=C/C=C/C(=O)O)O2)C[C@H](O)C1(C)C (stereo not given in full),12.6
8,C/C=C\C=C\[C@@H]1O[C@](O)([C@H](C)C(=O)NC/C=C/C=C(\C)C(O)C(C)C2CC(O)C(/C=C/C=C/C=C/C(=O)O)O2)[C@H](O)[C@H](O)C1(C)C (stereo not given in full),100
9,C/C=C\C=C\[C@@H]1O[C@](O)([C@H](C)C(=O)NC/C=C/C=C(\C)C(OC)C(C)C2CC(O)C(/C=C/C=C/C=C/C(=O)O)O2)[C@H](O)[C@H](O)C1(C)C (stereo not given in full),6.3
10,C/C=C\C=C\[C@@H]1O[C@](O)([C@H](CO[C@H]2C[C@H](OC)[C@H](O[C@@H]3C[C@@H](OC)[C@@H](O[C@H]4C[C@H](OC)[C@H](O)[C@H](C)O4)[C@H](C)O3)[C@H](C)O2)C(=O)NC/C=C/C=C(\C)C(OC)C(C)C2CC(O)C(/C=C/C=C/C=C/C(=O)O)O2)C[C@H](O)C1(C)C (stereo not given in full),6.3
11,C/C=C\C=C\[C@@H]1O[C@](O)([C@@H](CO[C@H]2C[C@H](OC)[C@H](O[C@@H]3C[C@@H](OC)[C@@H](O[C@H]4C[C@H](OC)[C@H](O)[C@H](C)O4)[C@H](C)O3)[C@H](C)O2)C(=O)NC/C=C/C=C(\C)C(OC)C(C)C2CC(O)C(/C=C/C=C/C=C/C(=O)O)O2)C[C@H](O)C1(C)C (stereo not given in full),6.3
12,C/C=C\C=C\[C@@H]1O[C@](O)([C@@H](CO[C@@H]2O[C@@H](C)[C@@H](C)[C@@H](O[C@@H]3C[C@@H](OC)[C@@H](O)[C@H](C)O3)[C@H]2OC)C(=O)NC/C=C/C=C(\C)C(OC)C(C)C2CC(O)C(/C=C/C=C/C=C/C(=O)O)O2)C[C@H](O)C1(C)C (stereo not given in full),12.6
13,C/C=C\C=C\[C@@H]1O[C@](O)([C@H](C)C(=O)NC/C=C/C=C(\C)C(OC)C(C)C2CC(O)C(/C=C/C=C/C=C/C(=O)O)O2)[C@H](OC(=O)Cc2ccccc2)[C@H](O)C1(C)C (stereo not given in full),12.5
14,C/C=C\C=C\[C@@H]1O[C@](O)([C@H](CO[C@H]2C[C@H](OC)[C@H](O[C@@H]3C[C@@H](OC)[C@@H](O[C@H]4C[C@H](OC)[C@H](O)[C@H](C)O4)[C@H](C)O3)[C@H](C)O2)C(=O)NC/C=C/C=C(\C)C(OC)C(C)C2CC(O)C(/C=C/C=C/C=C/C(=O)O)O2)[C@H](OC(=O)Cc2ccccc2)[C@H](O)C1(C)C (stereo not given in full),0.4
15,C/C=C\C=C\[C@@H]1O[C@](O)([C@H](CO[C@H]2C[C@H](O)[C@H](O)[C@H](C)O2)C(=O)NC/C=C/C=C(\C)C(OC)C(C)C2CC(O)C(/C=C/C=C/C=C/C(=O)O)O2)[C@H](O)[C@H](O)C1(C)C (stereo not given in full),100
